Article PMC11057141, “Untangling the mess of CGRP levels as a migraine biomarker: an in-depth literature review and analysis of our experimental experience” (The Journal of Headache and Pain, 2024)
No end group written: not given here.

Key:
CGRP [1] = conditions: mean ± SEM, cited from earlier work
CGRP [2] = system: CGRP; parameters: method as in PMID 16472331; conditions: MWA, mean ± SEM, cited from earlier work
CGRP [3] = system: CGRP; parameters: method as in PMID 15689192; conditions: MWA, ictal, cited from earlier work
CGRP [4] = system: CGRP; parameters: method as in PMID 8388188; conditions: 8 migraineurs, ictal, subcutaneous sumatriptan, mean ± SE; pre-treatment 60 ± 8; cited from earlier work
[5] = Influence of sample processing time: serum kept at 4°C before freezing at -80°C, sandwich ELISA; assay type: in vitro ADME, human
Method: (§1) We tested 4 different ELISA kit references with serum samples, 2 based on competitive ELISA (Biorbyt, UK, ref: orb438605; BMA Biomedicals, Switzerland, ref: S-1198), specifically designed for the detection of total-CGRP, and 2 based on ELISA sandwich (Abbexa, UK, ref: abx257902; CUSABIO, China, ref: CSB-E08210h), designed for the detection of alpha and beta-CGRP, respectively. All 4 of these products were assayed multiple times (at least 4 for each kit reference) to analyse the optimal dilutions of the samples, their reproducibility and their reported concentrations. All the procedures were carried out strictly following the manufacturer’s instructions of use of their products, they were performed by the same researcher, using the same equipment, and in the same facilities. […] All the samples were measured in duplicate, obtained from morning blood extractions, 9–12 am, from patients in a fast of at least 12h. These samples were let to clot for 10–15 min, centrifuged at 3500 rpm for 10 min and then immediately stored at -80°C until assayed. A standard curve was generated for every single batch, and they were calculated using a 4-parameter logistic (4-PL) regression with r^2 > 0.999.
We recruited 6 individuals without history of migraine and subjective absence of headache at the day of the sampling (50% male; age range: 24–65 years). […] The blood was then let to clot for 10 min at room temperature, then centrifuged at 3500 rpm for 10 min to obtain serum. Serum was divided into 4 tubes. First one was immediately stored at -80°C, the other three were kept in the refrigerator at 4°C for, 2, 4 and 24 h respectively before frozen. None of the samples were added peptidase inhibitor. These samples were measured by triplicate.

[6] = frozen samples; cited from earlier work
From the text: Another point recurrently mentioned in the literature is the long-term stability of the molecules when frozen. […] This opens up the question about whether c ...

[7] = infused in humans; cited from earlier work
From the text: The relevance of the peptide goes beyond its use as a therapeutical target, having been proposed as a biomarker in migraine.

[8] = Long-term storage of serum at -80°C, sandwich ELISA; assay type: in vitro ADME; conditions: human serum
Method: as §1
We assayed 11 consecutive samples from previous works (36.4% male; age range: 26–65) that had been stored at -80°C for more than 6 months and which had been assayed altogether before being stored for a month and before reaching this time point.

CGRP [9] = conditions: 32 MWA; exact values not displayed; cited from earlier work
From the text: Table 1 Charasteristics of the studies measuring CGRP in migraine patients | column: Main findings relate to CGRP

CGRP [10] = conditions: cited from earlier work; for plasma CGRP 4 months after treatment cessation (V2), median (IQR) / plasma CGRP at last injection (V1), median (IQR): EM and CM patients, controls 32.6(21.3–44.6)
From the text: Table 1 Charasteristics of the studies measuring CGRP in migraine patients | column: Concentrations

[11] = EM without aura, mean ± SD, T0 86.9 ± 24.1
[12] = healthy controls, mean ± SD, T0 87.9 ± 21.3

In the case of `O=[N+]([O-])OCC(CO[N+](=O)[O-])O[N+](=O)[O-]` [nitroglyceri, nitroglycerin], the “plasma CGRP, controls T1” value (CGRP [1]; basal 15.1 ± 2.0) is given as 17.5 pmol/L, the “plasma CGRP, controls T2” value (CGRP [1]; basal 15.1 ± 2.0) is given as 16.5 pmol/L and the “plasma CGRP, controls T3” value (CGRP [1]; basal 15.1 ± 2.0) is given as 15.3 pmol/L. The “plasma CGRP, migraineurs T1” value (CGRP [1]; basal 18.4 ± 1.7) was 19.7 pmol/L, the “plasma CGRP, migraineurs T2” value (CGRP [1]; basal 18.4 ± 1.7) was 22.2 pmol/L and the “plasma CGRP, migraineurs T3” value (CGRP [1]; basal 18.4 ± 1.7) was 21.0 pmol/L.

In the case of `CN(C)CCc1c[nH]c2ccc(Cn3cncn3)cc12` [rizatriptan], the “plasma (JV) CGRP, non-responders 1 h” value (CGRP [2]; before rizatriptan 7.4 ± 2.4) is listed as 7.6 pmol/L, the “plasma (JV) CGRP, non-responders 2 h” value (CGRP [2]; before rizatriptan 7.4 ± 2.4) is listed as 7.9 pmol/L and the “plasma (JV) CGRP, non-responders 4 h” value (CGRP [2]; before rizatriptan 7.4 ± 2.4) is listed as 7.7 pmol/L. For the same molecule, the “plasma (JV) CGRP, non-responders 6 h” value (CGRP [2]; before rizatriptan 7.4 ± 2.4) was 7.3 pmol/L, the “plasma (JV) CGRP, non-responders 12 h” value (CGRP [2]; before rizatriptan 7.4 ± 2.4) was 7.2 pmol/L and the “plasma (JV) CGRP, responders 1 h” value (CGRP [2]; before rizatriptan 12.2 ± 3.2) was 7.6 pmol/L. For the same molecule, the “plasma (JV) CGRP, responders 2 h” value (CGRP [2]; before rizatriptan 12.2 ± 3.2) was 3.4 pmol/L, the “plasma (JV) CGRP, responders 4 h” value (CGRP [2]; before rizatriptan 12.2 ± 3.2) was 2.6 pmol/L and the “plasma (JV) CGRP, responders 6 h” value (CGRP [2]; before rizatriptan 12.2 ± 3.2) was 2.3 pmol/L. The “plasma (JV) CGRP, responders 12 h” value (CGRP [2]; before rizatriptan 12.2 ± 3.2) was 2.1 pmol/L.

In the case of `CNS(=O)(=O)Cc1ccc2[nH]cc(CCN(C)C)c2c1` [sumatriptan], the “plasma CGRP 1 h after sumatriptan, responders” value (CGRP [3]; n = 6, mean ± SEM, before 16.9 ± 2.8) is listed as 14.7 pmol/L, the “plasma CGRP 1 h after sumatriptan, non-responders” value (CGRP [3]; n = 13, mean ± SEM, before 24.3 ± 2.5) is listed as 23.8 pmol/L and the “plasma (JV) CGRP post-treatment” value (CGRP [4]) is listed as 40 pmol/L.

For Calcitonin gene-related peptide [CGRP], the “CGRP content in serum stored at 4°C” value ([5]; first 24 h at 4°C after clotting and immediate centrifugation) is listed as “preserved”, the “effect of frozen storage of 8 months on CGRP concentration” value [6] is listed as “significantly decrease” and the “effect of infusion in humans” value [7] is listed as “induction of migraine-like headaches”. The “effect of storage at -80°C of more than 6 months on CGRP levels” value [8] was “decrease”.

In the case of “Pituitary adenylate cyclase activating peptide-38 (HSDGIFTDSYSRYRKQMAVKKYLAAVLGKRYKQRVKNK; ends and bridges not checked; UniProt P18509 132-169, looked up) [PACAP38]”, the “effect of PACAP38 infusion on CGRP concentrations” value (CGRP [9]) is listed as “PACAP38 infusion do not causes changes in CGRP concentrations”.

For “Vasoactive intestinal peptide (HSDAVFTDNYTRLRKQMAVKKYLNSILN; ends and bridges not checked; UniProt P01282 125-152, looked up) [VIP]”, the “plasma CGRP, VIP infusion Migraine T30” value (CGRP [10]; [11]) is given as 94.2 pg/mL, the “plasma CGRP, VIP infusion Migraine T60” value (CGRP [10]; [11]) is given as 95.1 pg/mL and the “plasma CGRP, VIP infusion Migraine T90” value (CGRP [10]; [11]) is given as 87.5 pg/mL. The “plasma CGRP, VIP infusion Migraine T120” value (CGRP [10]; [11]) was 88.7 pg/mL, the “plasma CGRP, VIP infusion Migraine T150” value (CGRP [10]; [11]) was 85.1 pg/mL and the “plasma CGRP, VIP infusion Migraine T180” value (CGRP [10]; [11]) was 83.3 pg/mL. The “plasma CGRP, VIP infusion HC T30” value (CGRP [10]; [12]) was 102.1 pg/mL, the “plasma CGRP, VIP infusion HC T60” value (CGRP [10]; [12]) was 109.3 pg/mL and the “plasma CGRP, VIP infusion HC T90” value (CGRP [10]; [12]) was 104.1 pg/mL. For the same molecule, the “plasma CGRP, VIP infusion HC T120” value (CGRP [10]; [12]) was 110.1 pg/mL, the “plasma CGRP, VIP infusion HC T150” value (CGRP [10]; [12]) was 97.8 pg/mL and the “plasma CGRP, VIP infusion HC T180” value (CGRP [10]; [12]) was 98.2 pg/mL.

With “beta-CGRP: endogenous neuropeptide encoded in CALCB, differs from alpha-CGRP in 3 of 37 amino acids” the “serum concentration after 2 h at 4°C” value ([5]; human serum, no peptidase inhibitor, 2 h at 4°C before -80°C, ELISA Abbexa (alpha) / CUSABIO (beta), mean ± SD, 6 subjects, triplicate) was 4.9 ± 1.7 pg/mL, the “serum concentration after 4 h at 4°C” value ([5]; human serum, no peptidase inhibitor, 4 h at 4°C before -80°C, ELISA Abbexa (alpha) / CUSABIO (beta), mean ± SD, 6 subjects, triplicate) was 4.7 ± 1.5 pg/mL and the “serum concentration after 24 h at 4°C” value ([5]; human serum, no peptidase inhibitor, 24 h at 4°C before -80°C, ELISA Abbexa (alpha) / CUSABIO (beta), mean ± SD, 6 subjects, triplicate) was 4.4 ± 1.8 pg/mL. For the same molecule, the “serum concentration, deep frozen right away” value ([5]; human serum, no peptidase inhibitor, clot 10 min RT, 3500 rpm 10 min, immediately -80°C, ELISA Abbexa (alpha) / CUSABIO (beta), mean ± SD, 6 subjects, triplicate) was 4.6 ± 1.6 pg/mL, the “serum concentration, measured before one month of storage at -80°C” value ([8]; 11 samples, ELISA Abbexa (alpha) / CUSABIO (beta), mean ± SD) was 4.9 ± 2.0 pg/mL and the “serum concentration after more than 6 months of storage at -80°C” value ([8]; same 11 samples, ELISA Abbexa (alpha) / CUSABIO (beta), mean ± SD, p < 0.01 vs first measurement) was 3.0 ± 1.3 pg/mL.

B1: Erenumab: anti-CGRP(-receptor) monoclonal antibody (antibody, chains of the INN, looked up, V domains shown)
VH: QVQLVESGGGVVQPGRSLRLSCAASGFTFSSFGMHWVRQAPGKGLEWVAVISFDGSIKYSVDSVKGRFTISRDNSKNTLFLQMNSLRAEDTAVYYCARDRLNYYDSSGYYHYKYYGMAVWGQGTTVTVSS
VL: QSVLTQPPSVSAAPGQKVTISCSGSSSNIGNNYVSWYQQLPGTAPKLLIYDNNKRPSGIPDRFSGSKSGTSTTLGITGLQTGDEADYYCGTWDSRLSAVVFGGGTKLTVL
For B1, the “serum CGRP at T1, median (IQR)” value (CGRP [10]; 94 erenumab treated EM and CM, basal 14.1 (8.2–33.9)) is listed as 13.8 pg/mL, the “plasma CGRP 4 months after treatment cessation (V2), median (IQR)” value (shortened to “plasma CGRP 4 months”) (CGRP [10]) is listed as 30.3 pg/mL and the “plasma CGRP at last injection (V1), median (IQR)” value (“plasma CGRP at last injection” below) (CGRP [10]) is listed as 31.2 pg/mL. The “salivary CGRP at M3, EM without depression” value (CGRP [10]; mean ± SD, basal 198.90 ± 27.89) was 235.05 pg/mL, the “salivary CGRP at M3, CM with depression” value (CGRP [10]; n = 6, mean ± SD, basal 460.69 ± 57.24) was 446.99 pg/mL and the “salivary CGRP at M3, CM without depression” value (CGRP [10]; n = 10, mean ± SD, basal 194.34 ± 43.75) was 256.34 pg/mL.

B2: Galcanezumab: anti-CGRP monoclonal antibody (antibody, chains of the INN, looked up, V domains shown)
VH: QVQLVQSGAEVKKPGSSVKVSCKASGYTFGNYWMQWVRQAPGQGLEWMGAIYEGTGKTVYIQKFADRVTITADKSTSTAYMELSSLRSEDTAVYYCARLSDYVSGFGYWGQGTTVTVSS
VL: DIQMTQSPSSLSASVGDRVTITCRASKDISKYLNWYQQKPGKAPKLLIYYTSGYHSGVPSRFSGSGSGTDFTLTISSLQPEDFATYYCQQGDALPPTFGGGTKVEIK
In the case of B2, the “plasma CGRP 4 months” value (CGRP [10]) is listed as 1853.2 pg/mL and the “plasma CGRP at last injection” value (CGRP [10]) is listed as 5439.3 pg/mL.

B3: Fremanezumab: anti-CGRP monoclonal antibody (antibody, chains of the INN, looked up, V domains shown)
VH: EVQLVESGGGLVQPGGSLRLSCAASGFTFSNYWISWVRQAPGKGLEWVAEIRSESDASATHYAEAVKGRFTISRDNAKNSLYLQMNSLRAEDTAVYYCLAYFDYGLAIQNYWGQGTLVTVSS
VL: EIVLTQSPATLSLSPGERATLSCKASKRVTTYVSWYQQKPGQAPRLLIYGASNRYLGIPARFSGSGSGTDFTLTISSLEPEDFAVYYCSQSYNYPYTFGQGTKLEIK
In the case of B3, the “plasma CGRP 4 months” value (CGRP [10]) is given as 34.3 pg/mL and the “plasma CGRP at last injection” value (CGRP [10]) is given as 29.4 pg/mL.
